Source: patent publication US4226610A, “Herbicidal compounds, preparation thereof and herbicides containing the same” (Meiji Selka Kaisha, Ltd., priority 1978, dated 1980)

System: water hyacinth
Assay: Experiment 4 foliar application to water hyacinths with surfactants
Format: in vivo, Eichhornia crassipes Solms
Design: key to Killing index: killing index: 0 = no effect, 5 = death
From the text: The detail of the assessment made in the following Experiments of the invention was as follows:
Four months after treatment, evaluation was made for inhibition of reproduction expressed in terms of symbols ranging from (-) to (+++) where (-) means no reproduction, namely complete suppression of reproduction, (±) remarkable suppression of reproduction; (+) considerable suppression of reproduction; (++) medium supprestion of reproduction; and (+++) no suppression of reproduction.
Water was placed in 20 cm.×30 cm. plastic vessels and a liquid fertilizer was added thereto.
Two water hyacinths were floated in each vessel. 0.1 or 0.2% of each of surfactants listed in Table 6 were added to 0.1 or 0.2% aqueous solutions of DL-AMPB choline. Each solution was sprayed by foliar application in an amount of 100 liter per 10 are. The killing index (0, no effect; 5, death) after 21 days and 3 months and the reproduction-inhibiting effect (-, no reproduction; +++, maximum reproduction) after 3 months were determined.

[1] = 0.1%, octylphenyl polyoxyethanol 0.2%, 3 months

CP(=O)(O)CCC(N)C(=O)O (racemic) [DL-AMPB choline]
Reproduction-inhibiting effect (0.1%, no surfactant, 3 months): +++ | Reproduction-inhibiting effect (0.1%, octylphenyl polyoxyethanol 0.1%, 3 months): + | Killing index [1]: 4.5 | Reproduction-inhibiting effect [1]: ± | Reproduction-inhibiting effect (0.1%, polyoxyethylene alkylaryl ether 0.1%, 3 months): ++ | Killing index (0.1%, polyoxyethylene alkylaryl ether 0.1%, 21 days): 2.5 | Reproduction-inhibiting effect (0.1%, polyoxyethylene alkylaryl ether 0.2%, 3 months): ± | Reproduction-inhibiting effect (0.1%, polyoxyethylene dodecyl ether 0.1%, 3 months): ++ | Killing index (0.1%, polyoxyethylene dodecyl ether 0.1%, 21 days): 2.5 | Reproduction-inhibiting effect (0.1%, polyoxyethylene dodecyl ether 0.2%, 3 months): ± | Reproduction-inhibiting effect (0.1%, polyoxyethylene sorbitan monooleate 0.1%, 3 months): ++ | Killing index (0.1%, polyoxyethylene sorbitan monooleate 0.1%, 21 days): 2.5 | Reproduction-inhibiting effect (0.1%, polyoxyethylene sorbitan monooleate 0.2%, 3 months): ± | Reproduction-inhibiting effect (0.1%, polyoxyethylene sorbitan monostearate 0.1%, 3 months): ++ | Killing index (0.1%, polyoxyethylene sorbitan monostearate 0.1%, 21 days): 2.5 | Reproduction-inhibiting effect (0.1%, polyoxyethylene sorbitan monostearate 0.2%, 3 months): ± | Killing index (0.2%, no surfactant, 3 months): 4.5 | Reproduction-inhibiting effect (0.2%, no surfactant, 3 months): ± | Reproduction-inhibiting effect (0.2%, octylphenyl polyoxyethanol 0.1%, 3 months): - | Reproduction-inhibiting effect (0.2%, octylphenyl polyoxyethanol 0.2%, 3 months): - | Reproduction-inhibiting effect (0.2%, polyoxyethylene alkylaryl ether 0.1%, 3 months): - | Killing index (0.2%, polyoxyethylene alkylaryl ether 0.1%, 21 days): 4.5 | Reproduction-inhibiting effect (0.2%, polyoxyethylene alkylaryl ether 0.2%, 3 months): - | Reproduction-inhibiting effect (0.2%, polyoxyethylene dodecyl ether 0.1%, 3 months): - | Killing index (0.2%, polyoxyethylene dodecyl ether 0.1%, 21 days): 4.5 | Reproduction-inhibiting effect (0.2%, polyoxyethylene dodecyl ether 0.2%, 3 months): - | Reproduction-inhibiting effect (0.2%, polyoxyethylene sorbitan monooleate 0.1%, 3 months): - | Killing index (0.2%, polyoxyethylene sorbitan monooleate 0.1%, 21 days): 4.5 | Reproduction-inhibiting effect (0.2%, polyoxyethylene sorbitan monooleate 0.2%, 3 months): - | Reproduction-inhibiting effect (0.2%, polyoxyethylene sorbitan monostearate 0.1%, 3 months): - | Killing index (0.2%, polyoxyethylene sorbitan monostearate 0.1%, 21 days): 4.5 | Reproduction-inhibiting effect (0.2%, polyoxyethylene sorbitan monostearate 0.2%, 3 months): -
